For experiment [1], the system named is BLM human melanoma cell line-derived xenograft. As to the kind of experiment: BLM melanoma xenograft model with MART-1-specific human T cells. Type of experiment: in vivo, mice. To be noted: ADC single dose 4 mg/kg i.v. with control or MART-1 T cells; anti-PD1 5 mg/kg weekly i.p. with MART-1 T cells and control ADC. On the procedure:
The anti-tumor activity of IgG1-AXL-107-vcMMAE in combination with anti-PD1 (pembrolizumab) was evaluated in the BLM human melanoma cell line-derived xenograft model in mice, which systemically received human T-cells that were engineered to express a melanoma-specific T-cell receptor (TCR) against MART-1. Before inoculation of mice with BLM cells, the BLM cells were transduced with the antigen (MART-1) as well as the correct HLA haplotype (HLA-A2) in order for the MART-1-specific T cells to recognize the tumor cells.
Melanoma cell line BLM was cultured in DMEM (Gibco), with fetal bovine serum (Sigma), 100 U/mL penicillin (Gibco) and 0.1 mg/mL streptomycin (Gibco) under standard conditions, and was regularly confirmed to be mycoplasma-free by PCR. […]
8-14 week old male and female NOD-SCID Gamma (NSGTM) mice (bred in-house at the Netherlands Cancer Institute (NKI), Amsterdam, The Netherlands) were subcutaneously injected in the right flank with 1×10^6 BLM tumor cells. Tumors were measured three times per week with a caliper, and when tumors were 100 mm3 (after 7 days) the animals were randomized over the following treatment groups: • 1. […]
Tumor volumes were measured 3 times per week by an independent animal technician in a blinded fashion. Tumor volume was calculated as follows: […]. […]

Experiment [2] concerns LCLC-103H cells. As to the kind of experiment: Calreticulin surface expression in vitro (flow cytometry). Type of experiment: cell-based, human. To be noted: 48 h. On the procedure:
(§1) LCLC-103H or MDA-MB-231 cells were grown to 70% to 80% confluence in 6-well plates, washed with serum-free medium and incubated with IgG1-AXL-107-vcMMAE (2 μg/mL), free monomethyl auristatin E (MMAE, SAFC, cat.no SG10; 10 or 50 nM), paclitaxel (1 μM), or isotype control ADC (IgG1-b12-vcMMAE; 2 μg/mL) in serum-free medium (RPMI1640, Lonza BE17-603E) for 48 hours (LCLC-103H) or 72 hours (MDA-MB-231). After incubation, supernatant and cells were collected and washed in PBS/0.1% BSA/0.02% azide (FACS buffer). Cells were then incubated with a phycoerythrin (PE)-conjugated mouse anti-human calreticulin antibody (Enzo, Cat no. ADI-SPA-601PE-D, lot. 10021835) for 30 min at 4° C. in the dark. A PE-conjugated mouse isotype control antibody (Enzo, cat no. ADI-SAB-600PE-D, lot. 08071817) was included as a control. After washing with FACS buffer, cells were analyzed with flow cytometry in the presence of DAPI (BD; cat no. 564907, lot. 8012653) or TO-PRO-3 (Thermo Fisher, cat no. T3605, lot. 1976612). Calreticulin expression was determined as PE positive cells and the percentage of calreticulin positive cells over isotype control was obtained on DAPI or TO-PRO-3 negative cells.

Experiment [3] deals with MDA-MB-231 cells. The description is as above. Type of experiment: cell-based, human. To be noted: 72 h. On the procedure:
as §1

For experiment [4], the system named is LCLC-103H cells. Briefly: HMGB1 secretion in vitro (ELISA). As to conditions: 48 hrs; ADC 2 μg/mL, MMAE 10 or 50 nM, paclitaxel 1 μM. It counts as cell-based, human. On the procedure:
(§2) MDA-MB-231 or LCLC-103H cells were seeded in quadruplicate at 125,000 cells per well (MDA-MB-231) or 25,000 cells/well (LCLC-103H) in 24-well plates and grown 3-4 hrs at 37° C. Subsequently, IgG1-AXL-107-vcMMAE (2 μg/mL), free monomethyl auristatin E (MMAE; 10 or 50 nM), paclitaxel (1 μM), or isotype control ADC (IgG1-b12-vcMMAE; 2 μg/mL) were added to the wells and plates were incubated for 48 hrs at 37° C. After incubation cells were pelleted at 1000 rpm for 3 min at RT and supernatants were transferred to a new 96-wells plate. HMGB1 was measured in the supernatant using a HMGB1-specific ELISA kit (IBL, Cat.no ST51011) according to manufacturer's instructions.

Experiment [5] deals with MDA-MB-231 cells. As to the kind of experiment: HMGB1 secretion in vitro (ELISA). It counts as cell-based, human. As to conditions: 48 hrs; ADC 2 μg/mL, MMAE 10 or 50 nM, paclitaxel 1 μM. On the procedure:
as §2

In another experiment the target is mouse Axl (Mus musculus, UniProt Q00993). Briefly: Binding to mouse Axl.
The next experiment concerns LXFA 526. To be noted: 4 mg/kg i.v.; Boshuizen et al, Nature Med 2018; cited from earlier work.
A further experiment deals with LXFA 677. To be noted: 4 mg/kg i.v.; Boshuizen et al, Nature Med 2018; cited from earlier work.
Setting [6] is: ADCs 2 μg/mL, MMAE 10 or 50 nM, paclitaxel 1 μM.
[7] abbreviates: compared to untreated or isotype control ADC.

Chain of mouse Axl (Q00993 19-888): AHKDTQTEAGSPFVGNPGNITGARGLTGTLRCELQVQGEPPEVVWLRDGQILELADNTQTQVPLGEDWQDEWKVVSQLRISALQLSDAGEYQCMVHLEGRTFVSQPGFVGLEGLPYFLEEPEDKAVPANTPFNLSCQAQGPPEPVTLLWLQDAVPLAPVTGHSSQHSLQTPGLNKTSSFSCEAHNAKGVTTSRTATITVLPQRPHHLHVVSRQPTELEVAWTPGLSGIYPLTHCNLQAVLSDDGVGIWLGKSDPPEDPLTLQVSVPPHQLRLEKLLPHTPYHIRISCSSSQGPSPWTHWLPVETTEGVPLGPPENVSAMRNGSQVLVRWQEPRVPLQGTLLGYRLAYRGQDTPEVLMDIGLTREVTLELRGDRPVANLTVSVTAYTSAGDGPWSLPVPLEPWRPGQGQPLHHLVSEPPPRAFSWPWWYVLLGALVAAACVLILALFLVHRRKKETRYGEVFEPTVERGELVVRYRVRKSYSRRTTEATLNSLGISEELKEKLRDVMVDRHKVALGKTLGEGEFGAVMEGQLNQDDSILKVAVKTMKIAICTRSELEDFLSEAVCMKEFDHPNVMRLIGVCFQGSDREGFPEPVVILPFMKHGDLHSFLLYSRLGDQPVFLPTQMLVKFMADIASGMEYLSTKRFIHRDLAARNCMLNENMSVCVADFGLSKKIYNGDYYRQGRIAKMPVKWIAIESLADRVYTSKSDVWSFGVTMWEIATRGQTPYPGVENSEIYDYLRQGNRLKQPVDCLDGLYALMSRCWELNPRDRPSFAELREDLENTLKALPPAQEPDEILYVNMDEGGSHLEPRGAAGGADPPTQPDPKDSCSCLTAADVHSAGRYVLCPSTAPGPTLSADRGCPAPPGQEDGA

With “IgG1-AXL-107-vcMMAE: anti-human AXL IgG1-kappa antibody conjugated, on an average of 4 cysteinyl, to MMAE via cleavable mc-val-cit-PABC linker”, the “anti-tumor effect (tumor size)” value in experiment [1] was “induced tumor regression”. The “cell surface expression of calreticulin (MFI) compared to untreated cells” value in the experiment on LCLC-103H cells [2] (setting [6]) was “about 1.4 fold”; in the experiment with MDA-MB-231 cells [3] (setting [6]), “about 3.5 fold”. Further, the “percentage of calreticulin positive cells” value with LCLC-103H cells [2] (setting [7]) and with MDA-MB-231 cells [3] (setting [7]) was “increased” throughout. The “HMGB1 secretion compared to untreated cells” value was “about 7.5 fold” in the experiment with LCLC-103H cells [4] and “about 1.6 fold” with MDA-MB-231 cells [5]. Moreover, the “binding to mouse Axl” value with mouse Axl is “does not bind”. For the same substance, the “anti-tumor activity / tumor growth” value with LXFA 526 and with LXFA 677 was “strong anti-tumor activity” throughout.

The values above are taken from US20220273809A1, “AXL ANTIBODY-DRUG CONJUGATES FOR USE IN TREATING CANCER” (GENMAB A/S, priority 2019, published 2022).
